From ChEMBL document CHEMBL4765295, “Synthesis, pharmacological profile and 2D-QSAR studies of curcumin-amino acid conjugates as potential drug candidates” (Eur J Med Chem, 2020)
Converted amounts (≈) assume the structure as drawn. “And” between values parts separate entries of the source, which are not always exact repeats. Identical values can stand only once.

How the values were obtained:
[1] = system: Rattus norvegicus; test: Antiinflammatory activity in Wistar rat model of carrageenan-induced paw edema assessed as reduction in thickness of paw edema at 10 mg/kg, ip pretreated for 1 hr followed by carrageenan challenge and measured after 1 hr (reference value: 2.41 +/-0.05 mm); type: functional; conditions: time 1 hr after carrageenan
[2] = system: Rattus norvegicus; test: Anti-inflammatory activity in Wistar rat assessed as inhibition of carrageenan-induced paw edema at 10 mg/kg, ip pretreated for 1 hr followed by carrageenan challenge and measured after 1 hr relative to control (reference value: 0.00 +/-0.02 %); type: functional; conditions: time 2 hrs
[3] = system: Rattus norvegicus; test: Antiinflammatory activity in Wistar rat model of carrageenan-induced paw edema assessed as reduction in thickness of paw edema at 10 mg/kg, ip pretreated for 1 hr followed by carrageenan challenge and measured after 2 hrs (reference value: 2.06 +/-0.09 mm); type: functional; conditions: time 3 hrs
[4] = system: Rattus norvegicus; test: Anti-inflammatory activity in Wistar rat assessed as inhibition of carrageenan-induced paw edema at 10 mg/kg, ip pretreated for 1 hr followed by carrageenan challenge and measured after 2 hr relative to control (reference value: 0.00 +/-0.03 %); type: functional; conditions: time 3 hrs
[5] = system: Rattus norvegicus; test: Antiinflammatory activity in Wistar rat model of carrageenan-induced paw edema assessed as reduction in thickness of paw edema at 10 mg/kg, ip pretreated for 1 hr followed by carrageenan challenge and measured after 3 hrs (reference value: 1.79 +/-0.07 mm); type: functional; conditions: time 4 hrs
[6] = system: Rattus norvegicus; test: Anti-inflammatory activity in Wistar rat assessed as inhibition of carrageenan-induced paw edema at 10 mg/kg, ip pretreated for 1 hr followed by carrageenan challenge and measured after 3 hr relative to control (reference value: 0.00 +/-0.1 %); type: functional; conditions: time 4 hrs
[7] = system: Rattus norvegicus; test: Antiinflammatory activity in Wistar rat model of carrageenan-induced paw edema assessed as reduction in thickness of paw edema at 10 mg/kg, ip pretreated for 1 hr followed by carrageenan challenge and measured after 4 hrs (reference value: 1.40 +/-0.10 mm); type: functional; conditions: time 5 hrs
[8] = system: Rattus norvegicus; test: Anti-inflammatory activity in Wistar rat assessed as inhibition of carrageenan-induced paw edema at 10 mg/kg, ip pretreated for 1 hr followed by carrageenan challenge and measured after 4 hr relative to control (reference value: 0.00 +/-0.4 %); type: functional; conditions: time 5 hrs
[9] = system: Rattus norvegicus; test: Antiinflammatory activity in Wistar rat model of carrageenan-induced paw edema assessed as reduction in thickness of paw edema at 10 mg/kg, ip pretreated for 1 hr followed by carrageenan challenge and measured after 24 hrs (reference value: 0.83 +/-0.08 mm); type: functional; conditions: time 25 hrs
[10] = system: Rattus norvegicus; test: Anti-inflammatory activity in Wistar rat assessed as inhibition of carrageenan-induced paw edema at 10 mg/kg, ip pretreated for 1 hr followed by carrageenan challenge and measured after 24 hr relative to control (reference value: 0.00 +/-0.3 %); type: functional; conditions: time 25 hrs
[11] = system: Rattus norvegicus; test: Anti-inflammatory activity in Wistar rat assessed as inhibition of carrageenan-induced paw edema at 10 mg/kg, ip pretreated for 1 hr followed by carrageenan challenge and measured after 4 hr relative to indomethacin; type: functional; conditions: time 5 hrs
[12] = system: Splenocyte; test: Immunomodulatory activity in Swiss albino mouse splenocytes assessed as cell viability at 10 uM by measuring stimulation index incubated for 72 hrs in presence of mitogenic stimulus phytohaemagglutinin by MTT assay (reference value: 1.00 +/- 0.24); type: functional
[13] = system: Splenocyte; test: Immunomodulatory activity in Swiss albino mouse splenocytes assessed as cell viability at 10 uM by measuring inhibition of stimulation index incubated for 72 hrs in presence of mitogenic stimulus phytohaemagglutinin by MTT assay relative to indomethacin; type: functional; conditions: read-out: Activity
[14] = system: Staphylococcus aureus; test: Antibacterial activity against Staphylococcus aureus ATCC 25923 incubated for 18 hrs by agar dilution method; type: functional
[15] = system: Streptococcus pyogenes; test: Antibacterial activity against Streptococcus pyogenes ATCC 19615 incubated for 18 hrs by agar dilution method; type: functional
[16] = system: Salmonella typhimurium; test: Antibacterial activity against Salmonella typhimurium ATCC 19430 incubated for 18 hrs by agar dilution assay; type: functional, Salmonella enterica subsp. enterica serovar Typhimurium; conditions: Salmonella enterica
[17] = system: Pseudomonas aeruginosa; test: Antibacterial activity against Pseudomonas aeruginosa ATCC 27853 incubated for 18 hrs by agar dilution assay; type: functional
[18] = system: Candida albicans; test: Antifungal activity against Candida albicans incubated for 18 to 24 hrs by CLSI method; type: functional; conditions: time 18-24 hrs
[19] = system: Peritoneal macrophage; test: Antiinflammatory activity in […] mouse Peritoneal macrophages assessed as reduction in LPS-induced NO production by measuring reduction in stimulation index at 10 uM preincubated for 1 hr followed by LPS stimulation measured after 24 hrs by Griess method (reference value: 27.31 +/- 2.56 uM); type: functional; conditions: time 25 hrs
[20] = system: Peritoneal macrophage; test: Antiinflammatory activity in […] mouse Peritoneal macrophages assessed as inhibition of LPS-induced NO production at 10 uM preincubated for 1 hr followed by LPS stimulation measured after 24 hrs by Griess method relative to control (reference value: 0.0 %); type: functional; set-up: scale not given: the % may be the effect or the level left; conditions: time 25 hrs

Compound	MIC [14]	MIC [15]	MIC [16]	MIC [17]	MIC [18]	Activity [1]	inhibition in vivo at 10 mg/kg [2]	Activity [3]	inhibition in vivo at 10 mg/kg [4]	Activity [5]	inhibition in vivo at 10 mg/kg [6]	Activity [7]	inhibition in vivo at 10 mg/kg [8]	Activity [9]	inhibition in vivo at 10 mg/kg [10]	inhibition in vivo at 10 mg/kg [11]	Activity_index [12]	viability at 10 µM [13]	Activity [19]	Activity [20]
COc1cc(/C=C/C(=O)/C=C(O)/C=C/c2ccc(OC(=O)[C@H](CCC(N)=O)NC(=O)OCc3ccccc3)c(OC)c2)ccc1OC(=O)[C@H](CCC(N)=O)NC(=O)OCc1ccccc1	0.5 µg/mL and 0.56 µM	0.125 µg/mL and 0.14 µM	0.5 µg/mL and 0.56 µM	1 µg/mL and 1.12 µM	0.5 µg/mL and 0.56 µM	1.18 mm	51%	1.09 mm	47%	0.99 mm	45%	0.78 mm	44%	0.8 mm	4%	51%	2.37	51.1%		
COc1cc(/C=C/C(=O)/C=C(O)/C=C/c2ccc(OC(=O)[C@H](Cc3ccccc3)NC(=O)OCc3ccccc3)c(OC)c2)ccc1OC(=O)[C@H](Cc1ccccc1)NC(=O)OCc1ccccc1	0.125 µg/mL and 0.134 µM	0.125 µg/mL and 0.134 µM	0.125 µg/mL and 0.134 µM	0.25 µg/mL and 0.269 µM	2 µg/mL and 2.15 µM	1 mm	59%	1.56 mm	24%	1.63 mm	9%	1.38 mm	5%	0.82 mm	1%	6%	2.91	41.5%	26.33 µM	3.6%
C[C@@H]1[C@H](O)[C@@H](C)/C=C/C=C/C=C/C=C/C=C/C=C/C=C/[C@H](O[C@@H]2O[C@H](C)[C@@H](O)[C@H](N)[C@@H]2O)C[C@@H]2O[C@](O)(C[C@@H](O)C[C@@H](O)[C@H](O)CC[C@@H](O)C[C@@H](O)CC(=O)O[C@H]1C)C[C@H](O)[C@H]2C(=O)O [AMPHOTERICIN B]					0.39 µg/mL and 0.422 µM															
O=C(O)c1cn(C2CC2)c2cc(N3CCNCC3)c(F)cc2c1=O [CIPROFLOXACIN]			2.4 µg/mL (≈ 7.24 µM)	4.8 µg/mL (≈ 14.5 µM)																
CCn1cc(C(=O)O)c(=O)c2cc(F)c(N3CCNCC3)cc21 [NORFLOXACIN]			2.4 µg/mL (≈ 7.52 µM)	4.8 µg/mL and 15000 µM																

Further lines, with some results ahead:

MIC [14]	MIC [15]	MIC [16]	MIC [17]	MIC [18]	Compound	Activity [1]	inhibition in vivo at 10 mg/kg [2]	Activity [3]	inhibition in vivo at 10 mg/kg [4]	Activity [5]	inhibition in vivo at 10 mg/kg [6]	Activity [7]	inhibition in vivo at 10 mg/kg [8]	Activity [9]	inhibition in vivo at 10 mg/kg [10]	inhibition in vivo at 10 mg/kg [11]	Activity_index [12]	viability at 10 µM [13]	Activity [19]	Activity [20]
0.25 µg/mL and 0.321 µM	0.125 µg/mL and 0.161 µM	0.5 µg/mL and 0.642 µM	2 µg/mL and 2.57 µM	2 µg/mL and 2.57 µM	COc1cc(/C=C/C(=O)/C=C(O)/C=C/c2ccc(OC(=O)[C@H](C)NC(=O)OCc3ccccc3)c(OC)c2)ccc1OC(=O)[C@H](C)NC(=O)OCc1ccccc1	1.05 mm	56%	1.59 mm	23%	1.4 mm	22%	1.23 mm	12%	0.83 mm	0%	14%	2.7	44.9%	24.89 µM	8.86%
0.125 µg/mL and 0.166 µM	0.125 µg/mL and 0.166 µM	0.5 µg/mL and 0.666 µM	1 µg/mL and 1.33 µM	0.5 µg/mL and 0.666 µM	COc1cc(/C=C/C(=O)/C=C(O)/C=C/c2ccc(OC(=O)CNC(=O)OCc3ccccc3)c(OC)c2)ccc1OC(=O)CNC(=O)OCc1ccccc1	0.87 mm	64%	1.41 mm	32%	1.13 mm	37%	0.92 mm	34%	0.83 mm	0%	39%	2.64	45.8%	24.55 µM	10.11%
0.125 µg/mL and 0.145 µM	0.125 µg/mL and 0.145 µM	0.25 µg/mL and 0.29 µM	0.125 µg/mL and 0.145 µM	0.5 µg/mL and 0.579 µM	COc1cc(/C=C/C(=O)/C=C(O)/C=C/c2ccc(OC(=O)[C@H](CC(C)C)NC(=O)OCc3ccccc3)c(OC)c2)ccc1OC(=O)[C@H](CC(C)C)NC(=O)OCc1ccccc1	1.59 mm	34%	1.85 mm	10%	1.61 mm	10%	1.25 mm	11%	0.82 mm	1%	13%	2.83	42.8%	26.06 µM	4.57%
0.25 µg/mL and 0.29 µM	0.125 µg/mL and 0.145 µM	0.25 µg/mL and 0.29 µM	1 µg/mL and 1.16 µM	1 µg/mL and 1.16 µM	COc1cc(/C=C/C(=O)/C=C(O)/C=C/c2ccc(OC(=O)[C@H](Cc3ccccc3)NC(=O)OC(C)(C)C)c(OC)c2)ccc1OC(=O)[C@H](Cc1ccccc1)NC(=O)OC(C)(C)C	1.47 mm	39%	1.16 mm	44%	0.85 mm	53%	0.58 mm	59%	0.41 mm	51%	68%	2.56	47.2%		
0.125 µg/mL and 0.15 µM	0.5 µg/mL and 0.599 µM	0.125 µg/mL and 0.15 µM	0.25 µg/mL and 0.299 µM	1 µg/mL and 1.2 µM	COc1cc(/C=C/C(=O)/C=C(O)/C=C/c2ccc(OC(=O)[C@@H](NC(=O)OCc3ccccc3)C(C)C)c(OC)c2)ccc1OC(=O)[C@@H](NC(=O)OCc1ccccc1)C(C)C	1.17 mm	51%	1.65 mm	20%	1.45 mm	19%	1.23 mm	12%	0.81 mm	2%	14%	2.87	42.1%	25.76 µM	5.68%
